Experimental data taken from patent US11098044B2, “Imidazopyridinyl compounds and use thereof for treatment of neurodegenerative disorders” (1ST Biotherapeutics, Inc., priority 2019, dated 2021).
Structures can show the parent of a compound that is named as a salt.

Experiments:
Assay type in all cases: biochemical
[1] = target: c-Abl (His-tagged recombinant human ABL1) (Homo sapiens (Human), UniProt P00519); assay: c-abl Kinase Assay (ADP-Glo); settings: ATP (25 μM), Abltide substrate
Experimental: ADP-Glo assay kit was purchased from Promega. Magnesium chloride (MgCl2), bovine serum albumin (BSA), ethylene glycol-bis(p-aminoethyl ether)-N,N,N′,N′-tetraacetic acid (EGTA), triton X-100, 1,4-dithiothreitol (DTT) and dimethyl sulfoxide (DMSO) were purchased from Sigma-Aldrich. HEPES buffer was purchased from Gibco. ABL1 kinase and Abltide were purchased from Signalchem.
c-Abl kinase activity was measured by Promega's ADP-Glo™ Assay. In this assay, His-tagged recombinant human ABL1 (0.25 ng/μl) is incubated with 5 μL of compounds (0.5% DMSO), 5 μL of Abltide (0.01 μg/μl) and 5 μL of ATP (25 μM) in buffer (50 mM HEPES, 7.5; 10 mM MgCl2; 1 mM EGTA; 0.05% BSA; 0.01% Triton X-100; 2 mM DTT). The assay was started by incubating the reaction mixture in a 96-well plate at 30° C. for 30-min. After the incubation, 25 μL ADP-Glo reagent was added and the reaction was incubated at room temperature for 40-min to stop the reaction and degrade residual ATP. The ADP product was then converted to ATP by adding 50 μL per well of detection reagent. Luminescence was detected after 30-min room temperature incubation with the Molecular device I3X plate reader. The IC50 values were calculated from a series of percent inhibition values determined at a range of inhibitor concentration using software routines as implemented in the GraphPad Prism 7 software and Sigma Plot 13.0.

LRRK2 (WT) = LRRK2 (WT) (Homo sapiens (Human), UniProt Q5S007); assay: LRRK2 Kinase Assay (Adapta); settings: 70 μM ATP, LRRKtide substrate
Experimental: (§1) The LRRK2 and LRRK2 G2019S kinase assays were performed using the Adapta™ technology in ThermoFisher Scientific. This experiment was carried out according to the supplier's protocol. Briefly, assay conditions were as follows. The mixture of substrate (LRRKtide) and each kinase was prepared in 50 mM Tris pH 8.5, 0.01% BRIJ-35, 10 mM MgCl2, 1 mM EGTA, 0.02% NaN3. Assays were performed in the presence of 70 μM ATP and 100 μM ATP (KmATP) in LRRK2 and LRRK2 G2019S, respectively. The reaction was progressed at room temperature for 1 hour. Upon completion of kinase reaction, 5 μL of Detection Mix was added and after 60 min incubation time, the emission ratio of 665/615 nm was calculated.

LRRK2 G2019S = LRRK2 G2019S (Homo sapiens (Human), UniProt Q5S007, G2019S); assay: LRRK2 G2019S Kinase Assay (Adapta); settings: 100 μM ATP, LRRKtide substrate; read-out: LRRK2_G2019S IC50
Experimental: as §1

LRRK2 (WT), sequence (Q5S007 whole entry): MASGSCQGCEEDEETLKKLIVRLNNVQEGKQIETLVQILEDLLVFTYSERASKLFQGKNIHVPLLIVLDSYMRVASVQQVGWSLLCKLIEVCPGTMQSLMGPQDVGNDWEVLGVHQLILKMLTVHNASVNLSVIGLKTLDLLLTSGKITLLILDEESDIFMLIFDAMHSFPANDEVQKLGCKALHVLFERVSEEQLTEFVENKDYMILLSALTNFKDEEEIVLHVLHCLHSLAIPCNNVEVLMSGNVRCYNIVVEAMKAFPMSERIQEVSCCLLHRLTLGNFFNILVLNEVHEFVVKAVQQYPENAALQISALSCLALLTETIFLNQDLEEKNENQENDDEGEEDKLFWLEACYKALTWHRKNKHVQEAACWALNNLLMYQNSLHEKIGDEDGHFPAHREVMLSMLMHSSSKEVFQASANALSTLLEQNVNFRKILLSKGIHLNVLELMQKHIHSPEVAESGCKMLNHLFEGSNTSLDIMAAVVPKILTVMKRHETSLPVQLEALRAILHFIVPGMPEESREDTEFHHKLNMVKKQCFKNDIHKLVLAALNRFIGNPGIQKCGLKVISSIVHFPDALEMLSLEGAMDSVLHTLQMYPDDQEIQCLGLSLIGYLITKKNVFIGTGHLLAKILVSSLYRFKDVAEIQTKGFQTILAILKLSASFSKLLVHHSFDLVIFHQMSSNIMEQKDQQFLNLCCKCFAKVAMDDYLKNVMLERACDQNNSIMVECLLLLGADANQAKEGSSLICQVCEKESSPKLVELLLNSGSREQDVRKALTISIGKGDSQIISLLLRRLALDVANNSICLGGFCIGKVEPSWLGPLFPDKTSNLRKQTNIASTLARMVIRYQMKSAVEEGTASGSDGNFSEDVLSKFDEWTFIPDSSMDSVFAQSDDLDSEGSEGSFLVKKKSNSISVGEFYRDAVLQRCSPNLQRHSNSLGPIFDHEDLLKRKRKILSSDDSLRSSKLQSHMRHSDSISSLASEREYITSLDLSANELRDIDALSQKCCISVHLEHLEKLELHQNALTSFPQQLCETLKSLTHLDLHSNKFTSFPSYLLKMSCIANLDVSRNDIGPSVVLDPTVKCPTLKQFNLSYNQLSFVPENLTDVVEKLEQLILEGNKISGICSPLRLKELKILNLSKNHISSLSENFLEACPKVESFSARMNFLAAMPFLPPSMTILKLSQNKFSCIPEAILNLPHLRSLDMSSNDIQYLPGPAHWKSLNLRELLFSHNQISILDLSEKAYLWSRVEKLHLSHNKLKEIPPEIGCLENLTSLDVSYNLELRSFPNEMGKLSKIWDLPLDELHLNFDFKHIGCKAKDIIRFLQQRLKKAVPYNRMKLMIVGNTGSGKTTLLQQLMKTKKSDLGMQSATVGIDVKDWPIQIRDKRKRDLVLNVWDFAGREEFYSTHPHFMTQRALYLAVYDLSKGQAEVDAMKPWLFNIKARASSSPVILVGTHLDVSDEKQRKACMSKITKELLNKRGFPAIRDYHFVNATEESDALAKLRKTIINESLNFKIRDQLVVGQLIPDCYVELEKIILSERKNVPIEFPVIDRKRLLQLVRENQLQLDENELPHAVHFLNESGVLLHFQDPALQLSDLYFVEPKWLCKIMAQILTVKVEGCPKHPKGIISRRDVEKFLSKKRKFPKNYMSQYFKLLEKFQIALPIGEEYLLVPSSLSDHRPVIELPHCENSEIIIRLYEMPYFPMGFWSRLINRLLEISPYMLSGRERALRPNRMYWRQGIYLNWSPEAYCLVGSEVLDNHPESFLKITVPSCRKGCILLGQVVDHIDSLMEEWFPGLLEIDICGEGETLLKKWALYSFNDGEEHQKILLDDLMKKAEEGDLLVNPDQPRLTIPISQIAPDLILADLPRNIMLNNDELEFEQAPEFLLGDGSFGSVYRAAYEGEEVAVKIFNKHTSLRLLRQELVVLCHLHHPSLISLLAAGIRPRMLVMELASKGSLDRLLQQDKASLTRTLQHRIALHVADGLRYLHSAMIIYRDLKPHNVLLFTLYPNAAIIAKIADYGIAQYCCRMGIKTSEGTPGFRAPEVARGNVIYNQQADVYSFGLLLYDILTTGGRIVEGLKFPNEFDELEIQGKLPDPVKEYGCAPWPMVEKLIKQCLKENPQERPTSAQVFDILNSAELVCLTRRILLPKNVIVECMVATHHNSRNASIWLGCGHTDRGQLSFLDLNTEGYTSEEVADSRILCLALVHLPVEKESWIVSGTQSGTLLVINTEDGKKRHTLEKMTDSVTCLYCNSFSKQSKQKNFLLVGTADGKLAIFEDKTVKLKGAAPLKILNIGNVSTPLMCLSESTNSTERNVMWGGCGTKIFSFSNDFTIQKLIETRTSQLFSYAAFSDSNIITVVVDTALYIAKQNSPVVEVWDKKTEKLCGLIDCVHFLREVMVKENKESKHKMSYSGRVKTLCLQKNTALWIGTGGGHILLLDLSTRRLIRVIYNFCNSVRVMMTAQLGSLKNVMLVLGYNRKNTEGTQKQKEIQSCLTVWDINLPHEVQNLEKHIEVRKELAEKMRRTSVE
c-Abl (His-tagged recombinant human ABL1), sequence (P00519 whole entry): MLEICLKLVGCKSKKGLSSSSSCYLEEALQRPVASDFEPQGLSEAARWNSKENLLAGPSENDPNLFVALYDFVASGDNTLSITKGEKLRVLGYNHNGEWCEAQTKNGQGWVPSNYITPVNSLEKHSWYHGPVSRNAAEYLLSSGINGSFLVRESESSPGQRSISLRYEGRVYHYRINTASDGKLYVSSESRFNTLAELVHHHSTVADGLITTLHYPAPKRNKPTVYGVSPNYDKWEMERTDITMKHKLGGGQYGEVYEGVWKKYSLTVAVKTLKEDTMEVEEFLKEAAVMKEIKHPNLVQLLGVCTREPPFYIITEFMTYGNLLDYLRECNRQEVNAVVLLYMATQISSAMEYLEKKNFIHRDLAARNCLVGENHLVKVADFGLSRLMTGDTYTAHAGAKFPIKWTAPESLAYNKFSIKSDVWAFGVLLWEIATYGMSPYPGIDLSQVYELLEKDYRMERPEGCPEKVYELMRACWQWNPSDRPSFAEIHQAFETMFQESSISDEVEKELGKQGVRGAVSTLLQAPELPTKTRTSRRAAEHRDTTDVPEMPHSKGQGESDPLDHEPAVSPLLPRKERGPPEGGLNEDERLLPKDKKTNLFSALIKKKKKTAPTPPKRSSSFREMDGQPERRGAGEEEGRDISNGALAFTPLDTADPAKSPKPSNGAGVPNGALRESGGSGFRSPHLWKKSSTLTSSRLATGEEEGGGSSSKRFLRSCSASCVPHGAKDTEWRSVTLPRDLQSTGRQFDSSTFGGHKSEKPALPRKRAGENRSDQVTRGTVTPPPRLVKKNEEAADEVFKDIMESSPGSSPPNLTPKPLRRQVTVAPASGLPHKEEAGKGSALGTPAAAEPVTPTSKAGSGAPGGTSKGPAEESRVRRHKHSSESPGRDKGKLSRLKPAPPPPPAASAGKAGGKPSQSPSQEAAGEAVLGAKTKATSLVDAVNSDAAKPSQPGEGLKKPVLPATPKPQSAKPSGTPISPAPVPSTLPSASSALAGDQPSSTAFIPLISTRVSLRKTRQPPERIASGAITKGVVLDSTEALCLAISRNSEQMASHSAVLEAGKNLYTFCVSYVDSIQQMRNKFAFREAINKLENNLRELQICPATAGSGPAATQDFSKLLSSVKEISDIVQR
LRRK2 G2019S, sequence (Q5S007 whole entry G2019S): as the sequence (Q5S007 whole entry) above, with G2019S counted along it

Structure (SMILES) | IC50 [1] | IC50 (LRRK2 (WT)) | IC50 (LRRK2 G2019S)
Cc1c(F)cccc1-c1ccc2nc(NC(=O)[C@H]3C[C@@H]3F)cn2c1 (stereo in doubt) [Example 71, 2-fluoro-N-(6-(3-fluoro-2-methylphenyl)imidazo[1,2-a]pyridin-2-yl)cyclopropanecarboxamide] | < 10 nM | 101 to 1000 nM | 10 to 100 nM
Cc1c(F)cccc1-c1ccc2nc(NC(=O)[C@@H]3C[C@H]3F)cn2c1 (stereo in doubt) [Example 72, 2-fluoro-N-(6-(3-fluoro-2-methylphenyl)imidazo[1,2-a]pyridin-2-yl)cyclopropanecarboxamide] | < 10 nM | 10 to 100 nM | 10 to 100 nM
Cc1c(F)cccc1-c1ccc2nc(NC(=O)[C@H]3C[C@H]3F)cn2c1 (stereo in doubt) [Example 73, 2-fluoro-N-(6-(3-fluoro-2-methylphenyl)imidazo[1,2-a]pyridin-2-yl)cyclopropanecarboxamide] | < 10 nM | 101 to 1000 nM | 10 to 100 nM
Cc1c(F)cccc1-c1ccc2nc(NC(=O)[C@@H]3C[C@@H]3F)cn2c1 [Example 1, (1S,2S)-2-fluoro-N-(6-(3-fluoro-2-methylphenyl)imidazo[1,2-a]pyridin-2-yl)cyclopropane-1-carboxamide Hydrochloride] | < 10 nM | 10 to 100 nM | 10 to 100 nM
Cc1cccc(F)c1-c1ccc2nc(NC(=O)[C@@H]3C[C@@H]3F)cn2c1 [Example 2, (1S,2S)-2-fluoro-N-(6-(2-fluoro-6-methylphenyl)imidazo[1,2-a]pyridin-2-yl)cyclopropane-1-carboxamide] | < 10 nM | 101 to 1000 nM | 10 to 100 nM
Cc1c(F)cccc1-c1ccc2nc(NC(=O)[C@@H]3C[C@@H]3F)c(Cl)n2c1 [Example 3, (1S,2S)—N-(3-chloro-6-(3-fluoro-2-methylphenyl)imidazo[1,2-a]pyridin-2-yl)-2-fluorocyclopropane-1-carboxamide] | 10 to 100 nM | 101 to 1000 nM | 101 to 1000 nM
Cc1cccc(C)c1-c1ccc2nc(NC(=O)[C@@H]3C[C@@H]3F)cn2c1 [Example 42, (1S,2S)—N-(6-(2,6-dimethylphenyl)imidazo[1,2-a]pyridin-2-yl)-2-fluorocyclopropane-1-carboxamide] |  | 101 to 1000 nM | 101 to 1000 nM
COc1ccncc1-c1ccc2nc(NC(=O)[C@@H]3C[C@@H]3F)cn2c1 [Example 48, (1S,2S)-2-fluoro-N-(6-(4-methoxypyridin-3-yl)imidazo[1,2-a]pyridin-2-yl)cyclopropane-1-carboxamide] |  | 10 to 100 nM | 10 to 100 nM
Cc1c(F)cccc1-c1ccc2nc(NC(=O)[C@@H]3C[C@@H]3F)c(Br)n2c1 [Example 58, (1S,2S)—N-(3-bromo-6-(3-fluoro-2-methylphenyl)imidazo[1,2-a]pyridin-2-yl)-2-fluorocyclopropane-1-carboxamide] | 10 to 100 nM |  | 
Cc1c(F)cccc1-c1ccc2nc(NC(=O)C3CC3(F)F)cn2c1 (centres unmarked) [Example 77, 2,2-difluoro-N-(6-(3-fluoro-2-methylphenyl)imidazo[1,2-a]pyridin-2-yl)cyclopropanecarboxamide] |  | 101 to 1000 nM | 10 to 100 nM
Cc1c(-c2ccc3nc(NC(=O)[C@@H]4C[C@@H]4F)cn3c2)cnc2[nH]ccc12 [Example 86, (1S,2S)-2-fluoro-N-(6-(4-methyl-1H-pyrrolo[2,3-b]pyridin-5-yl)imidazo[1,2-a]pyridin-2-yl)cyclopropanecarboxamide] | < 10 nM |  | 
O=C(Nc1cn2cc(-c3cnc4[nH]ccc4c3Cl)ccc2n1)[C@@H]1C[C@@H]1F [Example 87, (1S,2S)—N-(6-(4-chloro-1H-pyrrolo[2,3-b]pyridin-5-yl)imidazo[1,2-a]pyridin-2-yl)-2-fluorocyclopropanecarboxamide] | < 10 nM |  | 
Cc1ccccc1-c1ccc2nc(NC(=O)[C@@H]3C[C@@H]3F)cn2c1 [Example 88, (1S,2S)-2-fluoro-N-(6-(o-tolyl)imidazo[1,2-a]pyridin-2-yl)cyclopropanecarboxamide] | < 10 nM |  | 
O=C(Nc1cn2cc(-c3cccc(F)c3O)ccc2n1)[C@@H]1C[C@@H]1F [Example 89, (1S,2S)-2-fluoro-N-(6-(3-fluoro-2-hydroxyphenyl)imidazo[1,2-a]pyridin-2-yl)cyclopropanecarboxamide] | < 10 nM |  | 
Nc1c(F)cccc1-c1ccc2nc(NC(=O)[C@@H]3C[C@@H]3F)cn2c1 [Example 90, (1S,2S)—N-(6-(2-amino-3-fluorophenyl)imidazo[1,2-a]pyridin-2-yl)-2-fluorocyclopropanecarboxamide] | < 10 nM |  | 
Cc1cc2cc[nH]c2cc1-c1ccc2nc(NC(=O)[C@@H]3C[C@@H]3F)cn2c1 [Example 91, (1S,2S)-2-fluoro-N-(6-(5-methyl-1H-indol-6-yl)imidazo[1,2-a]pyridin-2-yl)cyclopropanecarboxamide] | < 10 nM |  | 
Cc1cc2[nH]ccc2cc1-c1ccc2nc(NC(=O)[C@@H]3C[C@@H]3F)cn2c1 [Example 92, (1S,2S)-2-fluoro-N-(6-(6-methyl-1H-indol-5-yl)imidazo[1,2-a]pyridin-2-yl)cyclopropanecarboxamide] | < 10 nM |  | 
CN(C)c1c(F)cccc1-c1ccc2nc(NC(=O)[C@@H]3C[C@@H]3F)cn2c1 [Example 93, (1S,2S)—N-(6-(2-(dimethylamino)-3-fluorophenyl)imidazo[1,2-a]pyridin-2-yl)-2-fluorocyclopropanecarboxamide] | 10 to 100 nM |  | 
Cc1cc2nc[nH]c2cc1-c1ccc2nc(NC(=O)[C@@H]3C[C@@H]3F)cn2c1 [Example 94, (1S,2S)-2-fluoro-N-(6-(5-methyl-1H-benzo[d]imidazol-6-yl)imidazo[1,2-a]pyridin-2-yl)cyclopropanecarboxamide] | < 10 nM |  | 
CCc1c(F)cccc1-c1ccc2nc(NC(=O)[C@@H]3C[C@@H]3F)cn2c1 [Example 95, (1S,2S)—N-(6-(2-ethyl-3-fluorophenyl)imidazo[1,2-a]pyridin-2-yl)-2-fluorocyclopropanecarboxamide] | < 10 nM |  | 
O=C(Nc1cn2cc(-c3ccccc3C(F)(F)F)ccc2n1)[C@@H]1C[C@@H]1F [Example 96] | 10 to 100 nM |  | 
O=C(Nc1cn2cc(-c3cccc(F)c3C3CC3)ccc2n1)[C@@H]1C[C@@H]1F [Example 97, (1S,2S)—N-(6-(2-cyclopropyl-3-fluorophenyl)imidazo[1,2-a]pyridin-2-yl)-2-fluorocyclopropanecarboxamide] | < 10 nM |  | 
CNc1c(F)cccc1-c1ccc2nc(NC(=O)[C@@H]3C[C@@H]3F)cn2c1 [Example 98, (1S,2S)-2-fluoro-N-(6-(3-fluoro-2-(methylamino)phenyl)imidazo[1,2-a]pyridin-2-yl)cyclopropanecarboxamide] | < 10 nM |  | 
Cc1cc2ncoc2cc1-c1ccc2nc(NC(=O)[C@@H]3C[C@@H]3F)cn2c1 [Example 99, (1S,2S)-2-fluoro-N-(6-(5-methylbenzo[d]oxazol-6-yl)imidazo[1,2-a]pyridin-2-yl)cyclopropanecarboxamide] | < 10 nM |  | 
Cc1ccc2[nH]cnc2c1-c1ccc2nc(NC(=O)[C@@H]3C[C@@H]3F)cn2c1 [Example 100, (1S,2S)-2-fluoro-N-(6-(5-methyl-1H-benzo[d]imidazol-4-yl)imidazo[1,2-a]pyridin-2-yl)cyclopropane-1-carboxamide] | 10 to 100 nM |  | 
Cc1ccc2ocnc2c1-c1ccc2nc(NC(=O)[C@@H]3C[C@@H]3F)cn2c1 [Example 102, (1S,2S)-2-fluoro-N-(6-(5-methylbenzo[d]oxazol-4-yl)imidazo[1,2-a]pyridin-2-yl)cyclopropanecarboxamide] | < 10 nM |  | 
Cc1cc2ncsc2cc1-c1ccc2nc(NC(=O)[C@@H]3C[C@@H]3F)cn2c1 [Example 103, (1S,2S)-2-fluoro-N-(6-(5-methylbenzo[d]thiazol-6-yl)imidazo[1,2-a]pyridin-2-yl)cyclopropanecarboxamide] | < 10 nM |  | 
Cc1c(-c2ccc3nc(NC(=O)[C@@H]4C[C@@H]4F)cn3c2)ccc2ncsc12 [Example 104, (1S,2S)-2-fluoro-N-(6-(7-methylbenzo[d]thiazol-6-yl)imidazo[1,2-a]pyridin-2-yl)cyclopropanecarboxamide] | < 10 nM |  | 
CC(C)c1c(F)cccc1-c1ccc2nc(NC(=O)[C@@H]3C[C@@H]3F)cn2c1 [Example 105, (1S,2S)-2-fluoro-N-(6-(3-fluoro-2-isopropylphenyl)imidazo[1,2-a]pyridin-2-yl)cyclopropanecarboxamide] | 101 to 1000 nM |  | 
